According to patent publication US12077503B2, “Substituted cyclic amides and their use as herbicides” (FMC CORPORATION, priority 2015, dated 2024):
Where two headings read alike, the source gives them in different places.

What was measured:
Format in all cases: in vivo
Kochia (Kochia scoparia) [1] = assay: Test A preemergence; details: Bassia scoparia, pre-emergence, 240 h; for pest or weed control at 125 g/ha: 125 g ai/ha, Preemergence, visual injury rating after approximately 10 d, read-out: Kochia plant response rating (0 to 100 scale, 0 is no effect, 100 is complete control); for pest or weed control at 500 g/ha: 500 g ai/ha, preemergence, visual injury rating about 10 d after treatment, 0 to 100 scale (0 no effect, 100 complete control), read-out: Kochia plant response rating
Summary of the method: (§1)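 Visual injury, scored on a 0–100 scale relative to untreated controls, was recorded about 10 d after application. Treatments were a preemergence soil spray over planted seeds or a postemergence spray on plants at the one- to two-leaf stage, 2 to 10 cm tall, all in loam soil–sand blend in the greenhouse.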

[2] = system: barnyardgrass (Echinochloa crus-galli); assay: Test A preemergence; details: Echinochloa crus-galli, pre-emergence, 240 h; for pest or weed control at 125 g/ha: 125 g ai/ha, Preemergence, visual injury rating after approximately 10 d, read-out: Barnyardgrass plant response rating (0 to 100 scale, 0 is no effect, 100 is complete control); for pest or weed control at 500 g/ha: 500 g ai/ha, preemergence, visual injury rating about 10 d after treatment, 0 to 100 scale (0 no effect, 100 complete control), read-out: Barnyardgrass plant response rating
Summary of the method: as §1

[3] = system: giant foxtail (Setaria faberii); assay: Test A preemergence; details: Setaria faberi, pre-emergence, 240 h; for pest or weed control at 125 g/ha: 125 g ai/ha, Preemergence, visual injury rating after approximately 10 d, read-out: Foxtail, Giant plant response rating (0 to 100 scale, 0 is no effect, 100 is complete control); for pest or weed control at 500 g/ha: 500 g ai/ha, preemergence, visual injury rating about 10 d after treatment, 0 to 100 scale (0 no effect, 100 complete control), read-out: Foxtail, Giant plant response rating
Summary of the method: as §1

[4] = system: pigweed (Amaranthus retroflexus); assay: Test A preemergence; details: Amaranthus retroflexus, pre-emergence, 240 h; for pest or weed control at 125 g/ha: 125 g ai/ha, Preemergence, visual injury rating after approximately 10 d, read-out: Pigweed plant response rating (0 to 100 scale, 0 is no effect, 100 is complete control); for pest or weed control at 500 g/ha: 500 g ai/ha, preemergence, visual injury rating about 10 d after treatment, 0 to 100 scale (0 no effect, 100 complete control), read-out: Pigweed plant response rating
[5] = system: ragweed (common ragweed, Ambrosia elatior); assay: Test A preemergence; details: Ambrosia artemisiifolia, pre-emergence, 240 h; for pest or weed control at 125 g/ha: 125 g ai/ha, Preemergence, visual injury rating after approximately 10 d, read-out: Ragweed plant response rating (0 to 100 scale, 0 is no effect, 100 is complete control); for pest or weed control at 500 g/ha: 500 g ai/ha, preemergence, visual injury rating about 10 d after treatment, 0 to 100 scale (0 no effect, 100 complete control), read-out: Ragweed plant response rating
Summary of the method: as §1

[6] = system: ryegrass, Italian (Italian ryegrass, Lolium multiflorum); assay: Test A preemergence; details: Lolium multiflorum, pre-emergence, 240 h; for pest or weed control at 125 g/ha: 125 g ai/ha, Preemergence, visual injury rating after approximately 10 d, read-out: Ryegrass, Italian plant response rating (0 to 100 scale, 0 is no effect, 100 is complete control); for pest or weed control at 500 g/ha: 500 g ai/ha, preemergence, visual injury rating about 10 d after treatment, 0 to 100 scale (0 no effect, 100 complete control), read-out: Ryegrass, Italian plant response rating
Summary of the method: as §1

[7] = system: Galium (catchweed bedstraw, Galium aparine); assay: Test A postemergence; details: Galium, post-emergence, 240 h, 125 g ai/ha, Postemergence; visual injury after approximately 10 d; 0 to 100 scale where 0 is no effect and 100 is complete control; read-out: Plant response rating, Galium
Summary of the method: as §1

Kochia (Kochia scoparia) [8] = assay: Test A postemergence; details: Bassia scoparia, post-emergence, 240 h, 125 g ai/ha, Postemergence; visual injury after approximately 10 d; 0 to 100 scale where 0 is no effect and 100 is complete control; read-out: Plant response rating, Kochia
Summary of the method: as §1

[9] = system: barnyardgrass (Echinochloa crus-galli); assay: Test A postemergence; details: Echinochloa crus-galli, post-emergence, 240 h, 125 g ai/ha, Postemergence; visual injury after approximately 10 d; 0 to 100 scale where 0 is no effect and 100 is complete control; read-out: Plant response rating, Barnyardgrass
Summary of the method: as §1

[10] = system: blackgrass (Alopecurus myosuroides); assay: Test A postemergence; details: Alopecurus myosuroides, post-emergence, 240 h, 125 g ai/ha, Postemergence; visual injury after approximately 10 d; 0 to 100 scale where 0 is no effect and 100 is complete control; read-out: Plant response rating, Blackgrass
Summary of the method: as §1

corn (Zea mays) = assay: Test A postemergence; details: Zea mays, post-emergence, 240 h, 125 g ai/ha, Postemergence; visual injury after approximately 10 d; 0 to 100 scale where 0 is no effect and 100 is complete control
Summary of the method: as §1

[11] = system: giant foxtail (Setaria faberii); assay: Test A postemergence; details: Setaria faberi, post-emergence, 240 h, 125 g ai/ha, Postemergence; visual injury after approximately 10 d; 0 to 100 scale where 0 is no effect and 100 is complete control; read-out: Plant response rating, Foxtail, Giant
Summary of the method: as §1

[12] = system: pigweed (Amaranthus retroflexus); assay: Test A postemergence; details: Amaranthus retroflexus, post-emergence, 240 h, 125 g ai/ha, Postemergence; visual injury after approximately 10 d; 0 to 100 scale where 0 is no effect and 100 is complete control; read-out: Plant response rating, Pigweed
Summary of the method: as §1

[13] = system: ragweed (common ragweed, Ambrosia elatior); assay: Test A postemergence; details: Ambrosia artemisiifolia, post-emergence, 240 h, 125 g ai/ha, Postemergence; visual injury after approximately 10 d; 0 to 100 scale where 0 is no effect and 100 is complete control; read-out: Plant response rating, Ragweed
Summary of the method: as §1

[14] = system: ryegrass, Italian (Italian ryegrass, Lolium multiflorum); assay: Test A postemergence; details: Lolium multiflorum, post-emergence, 240 h, 125 g ai/ha, Postemergence; visual injury after approximately 10 d; 0 to 100 scale where 0 is no effect and 100 is complete control; read-out: Plant response rating, Ryegrass, Italian
Summary of the method: as §1

[15] = system: wheat (Triticum aestivum); assay: Test A postemergence; details: Triticum aestivum, post-emergence, 240 h, 125 g ai/ha, Postemergence; visual injury after approximately 10 d; 0 to 100 scale where 0 is no effect and 100 is complete control; read-out: Plant response rating, Wheat
Summary of the method: as §1

[16] = system: barnyardgrass (Echinochloa crus-galli); assay: Test B flooded paddy test; details: Echinochloa crus-galli, Flood, 250 g ai/ha; scale of 0 to 100 where 0 is no effect and 100 is complete control; read-out: Barnyardgrass plant response rating
Summary of the method: (§2)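 Compound goes directly into floodwater once pots are flooded 3 cm above soil, targeting plants at two leaves; the water depth is then held for the test duration. Plants sit 13–15 d in a greenhouse and are rated visually, 100 denoting complete control.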

[17] = system: ducksalad (Heteranthera limosa); assay: Test B flooded paddy test; details: Heteranthera limosa, Flood, 250 g ai/ha; scale of 0 to 100 where 0 is no effect and 100 is complete control; read-out: Ducksalad plant response rating
Summary of the method: as §2

rice (Oryra sativa) = assay: Test B flooded paddy test; details: Oryza sativa, Flood, 250 g ai/ha; scale of 0 to 100 where 0 is no effect and 100 is complete control; read-out: Rice plant response rating
Summary of the method: as §2

[18] = system: sedge, umbrella (small-flower umbrella sedge, Cyperus difformis); assay: Test B flooded paddy test; details: Cyperus difformis, Flood, 250 g ai/ha, read-out: Sedge, Umbrella plant response rating
Summary of the method: as §2

SMILES	pest or weed control at 125 g/ha (Kochia (Kochia scoparia) [1]) [%]	pest or weed control at 500 g/ha (Kochia (Kochia scoparia) [1]) [%]	pest or weed control at 125 g/ha [2] [%]	pest or weed control at 500 g/ha [2] [%]	pest or weed control at 125 g/ha [3] [%]	pest or weed control at 500 g/ha [3] [%]	pest or weed control at 125 g/ha [4] [%]	pest or weed control at 500 g/ha [4] [%]	pest or weed control at 125 g/ha [5] [%]	pest or weed control at 500 g/ha [5] [%]	pest or weed control at 125 g/ha [6] [%]	pest or weed control at 500 g/ha [6] [%]	pest or weed control at 125 g/ha [7] [%]	pest or weed control at 125 g/ha (Kochia (Kochia scoparia) [8]) [%]	pest or weed control at 125 g/ha [9] [%]	pest or weed control at 125 g/ha [10] [%]	Corn plant response rating (crop injury, 0 = no effect, 100 = complete kill) at 125 g/ha (corn (Zea mays)) [%]	pest or weed control at 125 g/ha [11] [%]	pest or weed control at 125 g/ha [12] [%]	pest or weed control at 125 g/ha [13] [%]	further results
COc1ccc([C@H]2CN(C)C(=O)[C@@H]2C(=O)Nc2ccccc2F)cc1C(F)(F)F [Compound 984]	90	90	100	100	100	100	40	60	0	30	70	30	30	50	100	30	80	90	0	0	pest or weed control at 125 g/ha [14]: 20%; plant injury at 125 g/ha [15]: 20%; pest or weed control at 250 g/ha [16]: 55%; pest or weed control at 250 g/ha [17]: 85%; pest or weed control at 250 g/ha (rice (Oryra sativa)): 15%; pest or weed control at 250 g/ha ([18]; scale of 0 to 100 where 0 is no effect and 100 is complete control): 0%
Cc1c(F)cccc1NC(=O)[C@H]1C(=O)N(C)C[C@@H]1c1cc(F)cc(C(F)(F)F)c1 [Compound 994]	40	60	90	100	100	100	30	70	0	0	70	100	50	40	100	60	70	90	0	20	pest or weed control at 125 g/ha [14]: 70%; plant injury at 125 g/ha [15]: 70%; pest or weed control at 250 g/ha [16]: 75%; pest or weed control at 250 g/ha [17]: 100%; pest or weed control at 250 g/ha (rice (Oryra sativa)): 20%; pest or weed control at 250 g/ha ([18]; 0 to 100 scale where 0 is no effect and 100 is complete control): 0%
